Experiment [1] addresses T1, HIV-1 Reverse Transcriptase (Human immunodeficiency virus type 1 group M subtype B, UniProt P03366).
T1 construct: performed with the enzyme HIV-1 RT (Ambion, 10 U/μL stock solution); purchased Ambion
The experiment is described as follows: Single incorporation into P1T1 by HIV-1 Reverse Transcriptase (Examples 6, 7, 9). Type of experiment: biochemical. The following applies: for conversion to an n+1 strand: 2 hours, 1 mM concentration. As to the method: HIV-1 Reverse Transcriptase serves, in the HIV-1 viral replication process, as a catalyst and uses deoxynucleotides as substrates. This polymerase is error-prone and thus has a high mutation rate. Here, we evaluated the capacity to incorporate a deoxyadenosine nucleoside into the primer-template complex P1T1 using HIV-1 RT, and some of the above described illustrative compounds of the invention, carrying different leaving groups, as substrates. The initial screening was carried out using a template with an overhang of one thymidine nucleotide followed by three non-pyrimidine bases (Table 1). Incorporation efficiency was analysed by the polyacrylamide gel-based single nucleotide incorporation assay.
End-labeled primer was annealed to its template by combining primer and template in a molar ratio of 1:2 and heating the mixture to 70° C. for 10 minutes followed by slow cooling to room temperature over a period of 1.5 hour. For the incorporation of 1, 2, 3, 4, 5 and 6, a series of 20 μL-batch reactions was performed with the enzyme HIV-1 RT (Ambion, 10 U/μL stock solution, specific activity 8.095 U/mg, concentration 1.2 mg/mL). The final mixture contained 125 nM primer template complex, RT buffer (250 mM Tris.HCl, 250 mM KCl, 50 mM MgCl2, 2.5 mM spermidine, 50 mM dithiothreitol (DTT); pH 8.3), 0.025 U/μL HIV-1 RT, and different concentrations of phosphoramidate or phosphodiester building blocks (1 mM, 500 μM, 200 μM and 100 μM respectively). In the case of the aromatic phosphate-modified nucleosides 23 and 24, the range of concentrations was limited to 1 mM. In the control reaction with the natural nucleotide, a 10 μM dATP concentration was used. The mixture was incubated at 37° C. and 2.5 μL aliquots were quenched after 5, 10, 20, 30, 60 and 120 minutes.

For a further experiment, the target named is T2, HIV RT (Human immunodeficiency virus type 1 group M subtype B, UniProt P03366).
T2 construct: HIV RT polymerase was purchased from GE Healthcare; purchased GE Healthcare (Amersham Bioscience)
The experiment can be described thus: Primer extension by HIV RT (P1/T3, P1/T5). The conditions noted are these: one hour, 500 μM. Type of experiment: biochemical, HIV-1. As for the experimental part: (§1) A typical single nucleotide incorporation and primer extension assays using HIV RT polymerase was carried out similar to one described in the literature. HIV RT polymerase was purchased from GE Healthcare and was supplied as either 12 or 30 U/μL stock solution. The final concentration of HIV RT in a reaction mixture was 0.03-0.003 U/μL. A primer/template duplex mixture was prepared by combining appropriate amounts of a 5′-^33P-labeled primer (P1) and a template in 1:2 molar ratio to provide a 4× solution with 0.5 μM primer concentration. The polymerase reactions were carried out in a 5×RT buffer containing 250 mM TRIS.HCL, 250 mM KCl, 50 mM MgCl2, 2.5 mM spermidine, 50 mM DTT, pH 8.3. For the single nucleotide incorporation assay, a P1/T1 primer-template pair was used whereas the primer extension study was performed with P1/T3 and P1/T5 primer-template pairs.
Primer extension study with HIV RT and Therminator DNA polymerase was performed in a fashion similar to the single nucleotide incorporation experiments. Two sets of primer/template complexes were used: P1/T3 and P1/T5.

Experiment [2] deals with T3, HIV reverse transcriptase (HIV RT) (Human immunodeficiency virus type 1 group M subtype B, UniProt P03366).
T3 construct: HIV RT polymerase was purchased from GE Healthcare; purchased GE Healthcare (Amersham Bioscience)
The experiment can be described thus: Single nucleotide incorporation by HIV RT, gel-based, P1/T1 (Examples 2-3). Type of experiment: biochemical, HIV-1. The following applies: same conditions (500 μM, 60 min). As to the method: as §1
Briefly, a mixture containing 5 μL of the 4× primer/DNA duplex solution and 5 μL of 4× polymerase solution was pre-incubated at 37° C. for 2 minutes to ensure formation a DNA polymerase/DNA duplex complex. Simultaneously, 2× solutions of dNTP to provide final concentrations of 100 μM, 200 μM, 500 μM and 1 mM were also pre-incubated at 37° C. for 2 minutes as well. The polymerase reaction in a total volume of 20 μL was initiated by addition of 10 μL of the 2× dNTP solution to the DNA polymerase/DNA duplex mixture. The reactions were run at 37° C. and aliquots (2.5 μL) were removed at specified time points and mixed with 10 μL of a quenching buffer containing 80% formamide, 2 mM EDTA, 1×TBE. Quenched reactions were analyzed by loading 2 μL of a reaction sample onto a 20% denaturing polyacrylamide:gel (19:1 acrylamide:bisacrylamide, 7M urea, 0.4 mm×30 cm×40 cm) made in 1×TBE buffer (90 mM Tris-borate, 2 mM EDTA, pH 8.3). The gel was pre-equilibrated for 2 hours before loading and the reactions were run along with a tracking dye marker containing bromophenol blue (BB) and xylene cyanol (XC) until the BB dye had run ⅔ of the total gel length. For visualization, gels were scanned using a Cyclone Phosphoroimager.

The target of experiment [3] is T4, Therminator DNA polymerase (Thermococcus sp., UniProt Q56366, A485L/D141A/E143A).
T4 construct: purchased Westburg (NEB)
T4 sequence (Q56366 whole entry D141A/E143A/A485L): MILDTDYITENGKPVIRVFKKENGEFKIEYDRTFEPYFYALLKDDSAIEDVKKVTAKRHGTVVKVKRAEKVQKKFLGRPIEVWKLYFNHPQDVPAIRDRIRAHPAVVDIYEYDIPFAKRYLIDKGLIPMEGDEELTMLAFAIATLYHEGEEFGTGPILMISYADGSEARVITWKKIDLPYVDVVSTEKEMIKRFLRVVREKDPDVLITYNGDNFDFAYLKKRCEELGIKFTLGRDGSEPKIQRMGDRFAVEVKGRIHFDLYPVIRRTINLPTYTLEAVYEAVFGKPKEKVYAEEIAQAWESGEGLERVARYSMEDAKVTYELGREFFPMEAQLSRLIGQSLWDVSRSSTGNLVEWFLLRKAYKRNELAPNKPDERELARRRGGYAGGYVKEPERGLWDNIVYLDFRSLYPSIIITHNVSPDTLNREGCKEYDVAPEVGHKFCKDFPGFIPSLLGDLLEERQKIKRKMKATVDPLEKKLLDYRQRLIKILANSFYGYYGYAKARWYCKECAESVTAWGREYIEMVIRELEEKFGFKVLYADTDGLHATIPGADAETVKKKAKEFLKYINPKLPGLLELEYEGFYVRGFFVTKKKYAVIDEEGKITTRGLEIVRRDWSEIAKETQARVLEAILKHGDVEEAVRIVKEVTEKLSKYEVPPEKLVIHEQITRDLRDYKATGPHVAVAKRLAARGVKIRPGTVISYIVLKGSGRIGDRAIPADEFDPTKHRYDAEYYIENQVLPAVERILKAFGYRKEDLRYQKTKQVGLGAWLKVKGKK
The experiment is described as follows: Single nucleotide incorporation by Therminator DNA polymerase. Type of experiment: biochemical, (9° N-7) Thermococcus sp. The following applies: single nucleotide incorporation, P1/T1. As to the method: In the case of Therminator DNA polymerase, the enzyme was obtained from Westburg (NEB) (2 U/μL) and the reactions were carried out in a 10× Thermopol reaction buffer containing 20 mM TRIS.HCl, 10 mM KCl, 2 mM MgSO4, 0.1% Triton X-100, pH 8.8. The final concentration of the Therminator DNA pol in the reaction mixture was 8.33×10^−4 U/μL. The polymerase reaction involving Therminator DNA polymerase or any other thermostable polymerase (Vent (exo^−), Taq DNA polymerase) was carried out in a similar way as the HIV RT reaction with some modifications. The dNTP solutions and the primer/template/DNA polymerase mixture solutions were topped with mineral oil (30-60 μL) and pre-incubated at 70° C. for 2 minutes. The polymerase reactions were performed at 70° C. as well.

In the case of `Nc1ncnc2c1ncn2[C@H]1C[C@H](O)[C@@H](COP(=O)(O)Nc2cc(C(=O)O)cc(C(=O)O)c2)O1` [Compound 23, 2′-deoxyadenosine-5′(5-aminoisophthalic acid) phosphoramidate], the “recognition as substrate” value in experiment [1] (1 mM) is recorded as “less well recognized as substrate”.
`Nc1ncnc2c1ncn2[C@H]1C[C@H](O)[C@@H](COP(=O)(O)Oc2cc(C(=O)O)cc(C(=O)O)c2)O1` [Compound 22, 2′-deoxyadenosine-5′-(5-hydroxy-isophthalic acid) phosphodiester]: the “conversion to an n+1 strand” value in experiment [1] is listed as 90-92%.
Still for that read-out and setting: to `Nc1ncnc2c1ncn2[C@H]1C[C@H](O)[C@@H](COP(=O)(O)Oc2ccc(C(=O)O)c(C(=O)O)c2)O1` [Compound 24, 2′-deoxyadenosine-5′-(4-hydroxy-phthalic acid) phosphodiester] belongs 13%.
Turning to `Nc1ncnc2c1ncn2[C@H]1C[C@H](O)[C@@H](COP(=O)(O)NCC2CO2)O1` (stereo partly shown) [Compound 3, 2′-deoxy-adenosine-5′-glycidyl-phosphoramidate], on HIV RT, the “primer strand extension efficiency” value was “low efficiency”. The “incorporation, fold less efficient than Asp-dAMP” value in experiment [2] is reported as 6.5 fold. For the same compound, the “incorporation as Therminator DNA polymerase substrate” value in experiment [3] was “act effectively as alternative substrates”.
As to `Nc1ncnc2c1ncn2[C@H]1C[C@H](O)[C@@H](COP(=O)(O)OCC(=O)O)O1` [GA-dAMP, 2′-deoxyadenosine-5′-(glycolic acid) phosphodiester], in experiment [1] (500 μM), the “n+1 formation” value is given as “up to 68%”.

Values taken from US8242087B2, “Phosphate modified nucleosides useful as substrates for polymerases and as antiviral agents” (priority 2007, dated 2012).
